Source: patent publication US20230416330A1, “Optimized GIP Peptide Analogues” (Antag Therapeutics ApS, priority 2019, published 2023)
Read-outs that look alike come from different tables or passages of the source. Starred links: 1 amine or outer side, 2 acyl side, 3 side chain; linkers in the order of their positions; H or OH if unused. Non-standard residues stand in square brackets, D forms with d. Residues, ends and D or L forms follow the SMILES beside them. *: point of attachment. C16 diacid = O=C(O)CCCCCCCCCCCCCCC(=O)*; Glutaryl = O=C(CCCC(=O)[*:2])[*:1]; Nle = CCCC[C@H](N)C(=O)O; Aib = CC(C)(N)C(=O)O

T1: human GIP receptor (Homo sapiens, UniProt P48546)
T1 construct: host or cells: HEK-293 cells, transient transfection (Lipofectamine 2000), cDNA in pCMV-Script vector
T1 sequence (P48546 22-466): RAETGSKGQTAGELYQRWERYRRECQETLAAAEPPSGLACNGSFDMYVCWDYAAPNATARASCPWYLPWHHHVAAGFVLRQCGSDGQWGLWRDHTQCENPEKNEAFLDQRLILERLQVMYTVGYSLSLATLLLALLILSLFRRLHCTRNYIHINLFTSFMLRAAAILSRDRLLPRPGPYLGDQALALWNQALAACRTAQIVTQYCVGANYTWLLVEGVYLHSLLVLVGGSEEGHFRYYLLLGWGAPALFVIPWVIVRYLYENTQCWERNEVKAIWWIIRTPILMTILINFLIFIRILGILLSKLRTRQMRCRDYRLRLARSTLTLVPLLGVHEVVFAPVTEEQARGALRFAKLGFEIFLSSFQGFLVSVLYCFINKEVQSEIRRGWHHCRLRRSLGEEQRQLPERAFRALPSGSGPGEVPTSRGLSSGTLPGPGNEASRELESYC

T2: human GIP receptor (human, UniProt P48546 22-466)
T2 sequence (looked up): T1 sequence (P48546 22-466)

B1: AT762 (peptide)
peptide: Glutaryl-GTFISDYSIAMDKIK(C16 diacid)QQDFVEWLLAQKPSSGAPPPS-OH
SMILES: CC[C@H](C)[C@H](NC(=O)[C@H](CO)NC(=O)[C@H](Cc1ccc(O)cc1)NC(=O)[C@H](CC(=O)O)NC(=O)[C@H](CO)NC(=O)[C@@H](NC(=O)[C@H](Cc1ccccc1)NC(=O)[C@@H](NC(=O)CNC(=O)CCCC(=O)O)[C@@H](C)O)[C@@H](C)CC)C(=O)N[C@@H](C)C(=O)N[C@@H](CCSC)C(=O)N[C@@H](CC(=O)O)C(=O)N[C@@H](CCCCN)C(=O)N[C@H](C(=O)N[C@@H](CCCCNC(=O)CCCCCCCCCCCCCCC(=O)O)C(=O)N[C@@H](CCC(N)=O)C(=O)N[C@@H](CCC(N)=O)C(=O)N[C@@H](CC(=O)O)C(=O)N[C@@H](Cc1ccccc1)C(=O)N[C@H](C(=O)N[C@@H](CCC(=O)O)C(=O)N[C@@H](Cc1c[nH]c2ccccc12)C(=O)N[C@@H](CC(C)C)C(=O)N[C@@H](CC(C)C)C(=O)N[C@@H](C)C(=O)N[C@@H](CCC(N)=O)C(=O)N[C@@H](CCCCN)C(=O)N1CCC[C@H]1C(=O)N[C@@H](CO)C(=O)N[C@@H](CO)C(=O)NCC(=O)N[C@@H](C)C(=O)N1CCC[C@H]1C(=O)N1CCC[C@H]1C(=O)N1CCC[C@H]1C(=O)N[C@@H](CO)C(=O)O)C(C)C)[C@@H](C)CC
B2: AT760 (peptide)
peptide: EGTFISDYSIXMDKIKQQDFVNWLLAQKPSSGAPPPS
modifications: Aib at 13; C16-diacid on Lys18 side chain, no linker; C-terminal COOH; GIP(1-42) numbering
B3: AT763 (peptide)
peptide: Glutaryl-GTFISDYSI[Aib]MDKIK(C16 diacid)QQDFVNWLLAQKPSSGAPPPS-OH

Key:
[1] = Physical stability: fibril formation in Thioflavin T (ThT) assay with agitation; format: physicochemical; details: 1 mg/ml, TFA, Phosphate (7.4); 25° C., agitation
Procedure, shortened: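 Peptides at 1, 5, 7.5 or 15 mg/ml in 50 mM sodium phosphate pH 7.4 or in water adjusted to pH 7.4 with NaOH, filtered 0.22 μm, with ThT added. Wells held a 3 mm silica bead under 300 rpm orbital agitation at 25° C. Emission at 486 nm tracked continuously; lag time = 10% of transition above baseline.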

[2] = biological target: T1, human GIP receptor; assay: cAMP assay Alternative 2 (Gaddum assay), antagonist potency pKb; format: cell-based
[3] = Solubility by visual inspection of peptide solutions; format: physicochemical; details: 1 mg/ml, TFA, Phosphate (7.4)
Procedure, shortened: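 Peptides dissolved at 1, 5, 7.5 or 15 mg/ml in 50 mM sodium phosphate pH 7.4 or water adjusted to pH 7.4 with NaOH, with gentle mixing. Immediate solubility judged visually as a clear, colorless solution.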

[4] = biological target: T2, human GIP receptor; assay: cell-based or functional assay
[5] = Table 2C, Gaddum equation, single antagonist dose, HEK-293 hGIPR, read-out: nM (Kb)

Molecule	Avr lag time (h) [1]	Kb [2]	Visual appearance [3]	Avr lag time [1]	Kb [2, 5]	nM (Kb, Schild analysis, cAMP) [4]	pKb (Schild analysis, cAMP) [4]
CC[C@H](C)[C@H](NC(=O)[C@H](CCCCN)NC(=O)[C@H](CC(=O)O)NC(=O)[C@H](CCSC)NC(=O)[C@H](CCCCNC(=O)CCCCCCCCCCCCCCC(=O)O)NC(=O)[C@@H](NC(=O)[C@H](CO)NC(=O)[C@H](Cc1ccc(O)cc1)NC(=O)[C@H](CC(=O)O)NC(=O)[C@H](CO)NC(=O)[C@@H](NC(=O)[C@H](Cc1ccccc1)NC(=O)[C@@H](NC(=O)CNC(=O)[C@@H](N)CCC(=O)O)[C@@H](C)O)[C@@H](C)CC)[C@@H](C)CC)C(=O)N[C@@H](Cc1c[nH]cn1)C(=O)N[C@@H](CCC(N)=O)C(=O)N[C@@H](CCC(N)=O)C(=O)N[C@@H](CC(=O)O)C(=O)N[C@@H](Cc1ccccc1)C(=O)N[C@H](C(=O)N[C@@H](CCC(=O)O)C(=O)N[C@@H](Cc1c[nH]c2ccccc12)C(=O)N[C@@H](CC(C)C)C(=O)N[C@@H](CC(C)C)C(=O)N[C@@H](C)C(=O)N[C@@H](CCC(N)=O)C(=O)N[C@@H](CCCCN)C(=O)N1CCC[C@H]1C(=O)N[C@@H](CO)C(=O)N[C@@H](CO)C(=O)NCC(=O)N[C@@H](C)C(=O)N1CCC[C@H]1C(=O)N1CCC[C@H]1C(=O)N1CCC[C@H]1C(=O)N[C@@H](CO)C(=O)O)C(C)C [AT740] (H-EGTFISDYSIK(C16 diacid)MDKIHQQDFVEWLLAQKPSSGAPPPS-OH; N-terminus assumed)	fnd (Fnd = fibrils not detected within experiment time (96 hours) with agitation.)	14 nM	Clear				
CC[C@H](C)[C@H](NC(=O)[C@H](CO)NC(=O)[C@H](Cc1ccc(O)cc1)NC(=O)[C@H](CC(=O)O)NC(=O)[C@H](CO)NC(=O)[C@@H](NC(=O)[C@H](Cc1ccccc1)NC(=O)[C@@H](NC(=O)CNC(=O)[C@@H](N)CCC(=O)O)[C@@H](C)O)[C@@H](C)CC)C(=O)N[C@@H](C)C(=O)N[C@@H](CCSC)C(=O)N[C@@H](CC(=O)O)C(=O)N[C@@H](CCCCNC(=O)CCCCCCCCCCCCCCC(=O)O)C(=O)N[C@H](C(=O)N[C@@H](Cc1c[nH]cn1)C(=O)N[C@@H](CCC(N)=O)C(=O)N[C@@H](CCC(N)=O)C(=O)N[C@@H](CC(=O)O)C(=O)N[C@@H](Cc1ccccc1)C(=O)N[C@H](C(=O)N[C@@H](CCC(=O)O)C(=O)N[C@@H](Cc1c[nH]c2ccccc12)C(=O)N[C@@H](CC(C)C)C(=O)N[C@@H](CC(C)C)C(=O)N[C@@H](C)C(=O)N[C@@H](CCC(N)=O)C(=O)N[C@@H](CCCCN)C(=O)N1CCC[C@H]1C(=O)N[C@@H](CO)C(=O)N[C@@H](CO)C(=O)NCC(=O)N[C@@H](C)C(=O)N1CCC[C@H]1C(=O)N1CCC[C@H]1C(=O)N1CCC[C@H]1C(=O)N[C@@H](CO)C(=O)O)C(C)C)[C@@H](C)CC [AT741] (H-EGTFISDYSIAMDK(C16 diacid)IHQQDFVEWLLAQKPSSGAPPPS-OH; N-terminus assumed)	fnd (Fnd = fibrils not detected within experiment time (96 hours) with agitation.)	11 nM	Clear				
CC[C@H](C)[C@H](NC(=O)[C@H](CO)NC(=O)[C@H](Cc1ccc(O)cc1)NC(=O)[C@H](CC(=O)O)NC(=O)[C@H](CO)NC(=O)[C@@H](NC(=O)[C@H](Cc1ccccc1)NC(=O)[C@@H](NC(=O)CNC(=O)[C@@H](N)CCC(=O)O)[C@@H](C)O)[C@@H](C)CC)C(=O)N[C@@H](C)C(=O)N[C@@H](CCSC)C(=O)N[C@@H](CC(=O)O)C(=O)N[C@@H](CCCCN)C(=O)N[C@H](C(=O)N[C@@H](CCCCNC(=O)CCCCCCCCCCCCCCC(=O)O)C(=O)N[C@@H](CCC(N)=O)C(=O)N[C@@H](CCC(N)=O)C(=O)N[C@@H](CC(=O)O)C(=O)N[C@@H](Cc1ccccc1)C(=O)N[C@H](C(=O)N[C@@H](CCC(=O)O)C(=O)N[C@@H](Cc1c[nH]c2ccccc12)C(=O)N[C@@H](CC(C)C)C(=O)N[C@@H](CC(C)C)C(=O)N[C@@H](C)C(=O)N[C@@H](CCC(=O)O)C(=O)N[C@@H](CCCCN)C(=O)N1CCC[C@H]1C(=O)N[C@@H](CO)C(=O)N[C@@H](CO)C(=O)NCC(=O)N[C@@H](C)C(=O)N1CCC[C@H]1C(=O)N1CCC[C@H]1C(=O)N1CCC[C@H]1C(=O)N[C@@H](CO)C(=O)O)C(C)C)[C@@H](C)CC [AT747] (H-EGTFISDYSIAMDKIK(C16 diacid)QQDFVEWLLAEKPSSGAPPPS-OH; N-terminus assumed)		14 nM	Clear	<24 h			
CCCC[C@H](NC(=O)C(C)(C)NC(=O)[C@@H](NC(=O)[C@H](CO)NC(=O)[C@H](Cc1ccc(O)cc1)NC(=O)[C@H](CCC(=O)O)NC(=O)[C@H](CO)NC(=O)[C@@H](NC(=O)[C@H](Cc1ccccc1)NC(=O)[C@@H](NC(=O)CNC(=O)CCCC(=O)O)[C@@H](C)O)[C@@H](C)CC)[C@@H](C)CC)C(=O)N[C@@H](CCC(=O)O)C(=O)N[C@@H](CCCCN)C(=O)N[C@H](C(=O)N[C@@H](CCCCNC(=O)CCCCCCCCCCCCCCC(=O)O)C(=O)N[C@@H](CCC(N)=O)C(=O)N[C@@H](CCC(N)=O)C(=O)N[C@@H](CCC(=O)O)C(=O)N[C@@H](Cc1ccccc1)C(=O)N[C@H](C(=O)N[C@@H](CCC(=O)O)C(=O)N[C@@H](Cc1c[nH]c2ccccc12)C(=O)N[C@@H](CC(C)C)C(=O)N[C@@H](CC(C)C)C(=O)N[C@@H](C)C(=O)N[C@@H](CCC(N)=O)C(=O)N[C@@H](CCCCN)C(=O)N1CCC[C@H]1C(=O)N[C@@H](CO)C(=O)N[C@@H](CO)C(=O)NCC(=O)N[C@@H](C)C(=O)N1CCC[C@H]1C(=O)N1CCC[C@H]1C(=O)N1CCC[C@H]1C(=O)N[C@@H](CO)C(=O)O)C(C)C)[C@@H](C)CC [AT755] (Glutaryl-GTFISEYSI[Aib][Nle]EKIK(C16 diacid)QQEFVEWLLAQKPSSGAPPPS-OH)	fnd (Fnd = fibrils not detected within experiment time (96 hours) with agitation.)		Clear		0.23 nM		
CC[C@H](C)[C@H](NC(=O)[C@H](CO)NC(=O)[C@H](Cc1ccc(O)cc1)NC(=O)[C@H](CC(=O)O)NC(=O)[C@H](CO)NC(=O)[C@@H](NC(=O)[C@H](Cc1ccccc1)NC(=O)[C@@H](NC(=O)CNC(=O)[C@@H](N)CCC(=O)O)[C@@H](C)O)[C@@H](C)CC)C(=O)N[C@@H](C)C(=O)N[C@@H](CCSC)C(=O)N[C@@H](CC(=O)O)C(=O)N[C@@H](CCCCN)C(=O)N[C@H](C(=O)N[C@@H](CCCCNC(=O)CCCCCCCCCCCCCCC(=O)O)C(=O)N[C@@H](CCC(N)=O)C(=O)N[C@@H](CCC(N)=O)C(=O)N[C@@H](CC(=O)O)C(=O)N[C@@H](Cc1ccccc1)C(=O)N[C@H](C(=O)N[C@@H](CCC(=O)O)C(=O)N[C@@H](Cc1c[nH]c2ccccc12)C(=O)N[C@@H](CC(C)C)C(=O)N[C@@H](CC(C)C)C(=O)N[C@@H](C)C(=O)N[C@@H](CCC(N)=O)C(=O)N[C@@H](CCCCN)C(=O)O)C(C)C)[C@@H](C)CC [AT749] (H-EGTFISDYSIAMDKIK(C16 diacid)QQDFVEWLLAQK-OH; N-terminus assumed)			Clear	<24 h	2.2 nM		
B1						0.15 nM	9.8
B2						0.46 nM	9.3
B3						0.14 nM	9.9
